In publication PMC6630699, “Synthesis and Cytotoxicity Evaluation of DOTA-Conjugates of Ursolic Acid” (Molecules, 2019):
Counter-ions that a name gives are not always drawn.

Experiments:
[1] = system: A375 (melanoma); assay: SRB cytotoxicity assay, A375; format: cell-based, human; settings: for EC50: Homo sapiens, A-375, SRB assay, 72 h of treatment; for Selectivity index SI A375: SI = EC50 (NIH 3T3)/EC50 (A375)
Source text: (§1) Due to cytotoxicity evaluation, the prepared UA-DOTA conjugates were screened in rhodamine B assays employing a series of human tumor cell lines and non-malignant mouse fibroblasts (NIH 3T3).
(§2) The cell lines used are human cancer cell lines: A2780 (ovarian carcinoma), HT29 (colon adenocarcinoma), MCF-7 (breast adenocarcinoma), A375 (melanoma), FaDu (pharynx squamous cell carcinoma) and non-malignant mouse fibroblasts NIH 3T3; all cell lines were obtained from the Department of Oncology (Martin-Luther-University Halle-Wittenberg). Cultures were maintained as monolayers in RPMI 1640 medium with L-glutamine (Capricorn Scientific GmbH, Ebsdorfergrund, Germany) supplemented with 10% heat inactivated fetal bovine serum (Sigma-Aldrich Chemie GmbH, Steinheim, Germany) and penicillin/streptomycin (Capricorn Scientific GmbH, Ebsdorfergrund, Germany) at 37 °C in a humidified atmosphere with 5% CO2.
(§3) The cytotoxicity of the compounds was evaluated using the sulforhodamine-B (Kiton-Red S, ABCR) micro culture colorimetric assay. Cells were seeded into 96-well plates on day 0 at appropriate cell densities to prevent confluence of the cells during the period of experiment. After 24 h, the cells were treated with six different concentrations (1, 3, 7, 12, 20, and 30 µM) minimum. The final concentration of DMSO/DMF never exceeded 0.5%, which was non-toxic to the cells. After a 72-h treatment, the supernatant medium from the 96-well plates was discarded, the cells were fixed with 10% trichloroacetic acid (TCA) and allowed to rest at 4 °C. After 24 h fixation, the cells were washed in a strip washer and dyed with SRB solution (100 µL, 0.4%, in 1% acetic acid) for about 20 min. After dying, the plates were washed four times with 1% acetic acid to remove the excess of the dye and allowed to air-dry overnight. Tris base solution (200 µL, 10 mM) was added to each well and absorbance was measured at λ = 570 nm using a 96 well plate reader (Tecan Spectra, Crailsheim, Germany). The EC50 values were averaged from three independent experiments performed each in triplicate calculated from semi logarithmic dose response curves applying a non-linear 4P Hills-slope equation (GraphPad Prism5; variables top and bottom were set to 100 and 0, respectively).

[2] = system: A2780 (ovarian carcinoma); assay: SRB cytotoxicity assay, A2780; format: cell-based, human; settings: for EC50: Homo sapiens, A2780, 72 h, SRB assay, 72 h of treatment; for Selectivity index SI A2780: SI = EC50 (NIH 3T3)/EC50 (A2780)
Source text: as §1, §2, §3

[3] = system: HT29 (colon adenocarcinoma); assay: SRB cytotoxicity assay, HT29; format: cell-based, human; settings: for EC50: Homo sapiens, HT-29, SRB assay, 72 h of treatment; for Selectivity index SI HT29: SI = EC50 (NIH 3T3)/EC50 (HT29)
Source text: as §1, §2, §3

[4] = system: MCF-7 (breast adenocarcinoma); assay: SRB cytotoxicity assay, MCF-7; format: cell-based, human; settings: for EC50: Homo sapiens, MCF7, SRB assay, 72 h of treatment; for Selectivity index SI MCF-7: SI = EC50 (NIH 3T3)/EC50 (MCF-7)
Source text: as §1, §2, §3

[5] = system: FaDu (pharynx squamous cell carcinoma); assay: SRB cytotoxicity assay, FaDu; format: cell-based, human; settings: for EC50: Homo sapiens, FaDu, SRB assay, 72 h of treatment; for Selectivity index SI FaDu: SI = EC50 (NIH 3T3)/EC50 (FaDu)
Source text: as §1, §2, §3

[6] = system: non-malignant mouse fibroblasts NIH 3T3; assay: SRB cytotoxicity assay, NIH 3T3; format: cell-based; settings: NIH3T3, 72 h of treatment
Source text: as §1, §2, §3

[7] = system: human tumor cell lines; assay: SRB cytotoxicity assay, statements over the whole cell line panel; format: cell-based; settings: summary over all tumor cell lines
Source text: as §1, §2, §3

| SMILES | EC50 [1] | EC50 [2] | EC50 [3] | EC50 [4] | EC50 [5] | EC50 [6] | EC50 [7] | melting point | Selectivity index SI A2780 [2] | Selectivity index SI HT29 [3] | Selectivity index SI MCF-7 [4] | Selectivity index SI FaDu [5] | Selectivity index SI A375 [1] |
| --- | --- | --- | --- | --- | --- | --- | --- | --- | --- | --- | --- | --- | --- |
| CC(=O)O[C@H]1CC[C@]2(C)[C@H]3CC=C4[C@@H]5[C@@H](C)[C@H](C)CC[C@]5(C(=O)NCCN5CCN(C(=O)CN6CCN(CC(=O)O)CCN(CC(=O)O)CCN(CC(=O)O)CC6)CC5)CC[C@@]4(C)[C@]3(C)CC[C@H]2C1(C)C [compound 15, 2,2’,2’’-[10-[2-[4-[2-(3β-Acetyloxy-urs-12-en-28-oylamino)ethyl]piperazin-1-yl]-2-oxoethyl]-1,4,7,10-tetraazacyclododecane-1,4,7-triyl]triacetic acid] | > 60 µM | > 60 µM | > 60 µM | > 60 µM | > 60 µM | > 60 µM | > 60 µM | 206 to 210 °C (dec.) | – | – | – | – | – |
| COc1cccc2c1C(=O)c1c(O)c3c(c(O)c1C2=O)C[C@@](O)(C(=O)CO)C[C@@H]3O[C@H]1C[C@H](N)[C@H](O)[C@H](C)O1 [DRC, doxorubicin hydrochloride, reference compound] | – | 0.01 ± 0.01 µM | 0.9 ± 0.2 µM | 1.1 ± 0.3 µM | – | 0.06 ± 0.03 µM | – | – | 6.00 | 0.07 | 0.05 | – | – |
| C[C@H]1[C@H](C)CC[C@]2(C(=O)O)CC[C@]3(C)C(=CC[C@@H]4[C@@]5(C)CC[C@H](O)C(C)(C)[C@@H]5CC[C@]43C)[C@H]12 [UA, Ursolic acid] | – | 11.7 ± 0.6 µM | 10.6 ± 0.7 µM | 12.7 ± 0.1 µM | – | 13.1 ± 1.1 µM | – | – | 1.12 | 1.24 | 1.03 | – | – |
| CC(=O)O[C@H]1CC[C@]2(C)[C@H]3CC=C4[C@@H]5[C@@H](C)[C@H](C)CC[C@]5(C(=O)NCCN5CCN(C(=O)CN6CCN(CC(=O)OCc7ccccc7)CCN(CC(=O)OCc7ccccc7)CCN(CC(=O)OCc7ccccc7)CC6)CC5)CC[C@@]4(C)[C@]3(C)CC[C@H]2C1(C)C [compound 13, Tribenzyl 2,2’,2’’-[10-[2-[4-[2-(3β-acetyloxy-urs-12-en-28-oylamino)ethyl]piperazin-1-yl]-2-oxoethyl]-1,4,7,10-tetraazacyclododecane-1,4,7-triyl]triacetate] | – | 2.1 ± 0.4 µM | 4 ± 0.4 µM | 3.3 ± 0.2 µM | 6 ± 0.1 µM | 3.6 ± 0.5 µM | < 6 µM | 142 to 146 °C | 1.71 | 0.90 | 1.09 | 0.60 | – |
| C[C@H]1[C@H](C)CC[C@]2(C(=O)NCCNC(=O)CN3CCN(CC(=O)OC(C)(C)C)CCN(CC(=O)OC(C)(C)C)CCN(CC(=O)OC(C)(C)C)CC3)CC[C@]3(C)C(=CC[C@@H]4[C@@]5(C)CC[C@H](O)C(C)(C)[C@@H]5CC[C@]43C)[C@H]12 [compound 29, Tri-tert-butyl 2,2’,2’’-[10-[2-[2-(3β-hydroxy-urs-12-en-28-oylamino)ethyl]amino-2-oxoethyl]-1,4,7,10-tetraazacyclododecane-1,4,7-triyl]triacetate] | 2 ± 0.3 µM | 1.6 ± 0.5 µM | 1.7 ± 0.4 µM | – | 2.9 ± 0.4 µM | 2.3 ± 0.7 µM | – | – | 1.44 | 1.35 | – | 0.79 | 1.15 |
| O=C(CN1CCNCCN(CC(=O)OCc2ccccc2)CCN(CC(=O)OCc2ccccc2)CC1)OCc1ccccc1 [compound 7, Tribenzyl 2,2’,2’’-(1,4,7,10-tetraazacyclododecane-1,4,7-triyl)triacetate] | 4.7 ± 0.3 µM | 3.8 ± 0.3 µM | 2 ± 0.2 µM | 4.1 ± 0.5 µM | 3.9 ± 0.7 µM | 4.5 ± 0.3 µM | < 5 µM | – | 1.18 | 2.25 | 1.10 | 1.15 | 0.96 |
| CC(C)(C)OC(=O)CN1CCNCCN(CC(=O)OC(C)(C)C)CCN(CC(=O)OC(C)(C)C)CC1 [compound 6, Tri-tert-butyl 2,2′,2’’-(1,4,7,10-tetraazacyclododecane-1,4,7-triyl)triacetate] | 12.4 ± 2.7 µM | 10.5 ± 3 µM | 8.7 ± 2.7 µM | 11.3 ± 2.3 µM | 9.5 ± 0.9 µM | 17.3 ± 0.1 µM | 10 to 14 µM | 180 to 182 °C | 1.65 | 1.99 | 1.53 | 1.82 | 1.40 |
